Measurements taken from EP1247803A2, “Indolinone compounds suitable for modulation of protein kinases” (Sugen, Inc., priority 1996, dated 1998).

Legend:
PDGF-R = PDGF-R (Homo sapiens, UniProt P09619); test: PDGF-R ELISA; format: cell-based
Description: A PDGF-R ELISA is described in International Patent Publication No. WO 96/40116, published December 19, 1996 by Tang et al.

EGFR = molecular target: T1, EGFR (Homo sapiens, UniProt P00533); test: EGFR ELISA assay (in vitro kinase activity, EGFR captured from A431 cell lysate); format: biochemical; set-up: concentration or dose not given beside the values
T1 construct: Add 7 ug A431 cell lysate per well (EGFR source); endogenous in cells; host or cells: A431
Description: To provide a consistent method for measuring the in vitro kinase activity of the EGFR in an Enzyme-linked immunosorbent assay (Elisa).
Scope. The following protocol describes the procedures used to analyze protein tyrosine kinase activity on the EGFR in an Elisa. The procedure also describes the protocol for the initial screening of drugs for inhibition or activation of protein tyrosine kinase activity.
Reagents and Supplies. • 1. […] 05-101 monoclonal anti-EGFR antibody (commercially available from UB1) -80° C, 1 ml aliquots • 3. […] TBST Buffer Formulation: 50 mM Tris pH 7.2 150 mM NaCl 0.1% Triton X-100 • 5. Blocking Buffer Formulation: 5% Carnation Instant Milk in PBS • 6. A431 cell lysate A431 cells are available from a variety of commercial sources and may be used lysed using conventional methods known to those skilled in the art or as described for lysis of the 3T3 cells in the EGF cellular assay described herein. -80° C, 1 ml aliquots • 7. TBS Buffer Formulation: 50 mM Tris pH 7.2 150 mM NaCl • 8. […] NUNC 96-well V bottom polypropylene plates Applied Scientific Catalog # AS-72092 • 11. EDTA Formulation: 200 mM EDTA pH 8.0 • 12. […] Goat anti-rabbit IgG peroxidase conjugate Biosource Catalog # ALI0404 • 14. ABTS Solution Formulation: 100 mM Citric Acid (anhydrous) 250 mM Na2HPO4 pH 4.0 0.5 mg/ml ABTS (2,2'-azino-bis(3-ethylbenzthiazoline-6-sulfonic acid) (Sigma Catalog # A-1888) Keep solution in dark at 4 C until ready to use • 15. Hydrogen peroxide 30% solution Fisher Catalog # H325 Store in the dark at 4 C until ready to use • 16. ABTS/H2O2 Formulation: 15 mls ABTS solution 2 ul H2O2 Prepare 5 minutes before use and room temperature • 17. 0.2 M HCL stock in H2O Procedure. • 1. Coat Corning 96-well elisa plates with 0.5 ug per well 05-101 antibody. Bring final volume to 100 ul per well with PBS. Coat plates overnight at 4° C. • 2. Remove unbound 05-101 from wells by inverting plate to remove liquid. Wash 1x with distilled H2O by filling wells Pat the plate on a paper towel to remove excess liquid. • 3. Block plates with 5% milk in PBS. 150 ul per well. Incubate plate 30 minutes while shaking on a microtiter plate shaker. • 4. Wash plate 3x with dionized water, then once with TBST • 5. Add 7 ug A431 cell lysate per well (EGFR source). Add PBS to final volume of 100 ul per well Incubate 30 minutes while shaking. • 6. Wash as described in step 4. • 7. At this point, drugs or extracts are added to the wells. Dilute drugs/extracts 1:100 (unless specified otherwise) in TBS + 10% DMSO in 96-well polypropylene plates. Add 120 ul TBS to ELISA plate containing captured EGFR. Add 13.5 ul diluted drugs/extracts to ELISA plate. […] Incubate plate 30 minutes while shaking. • 8. […] (150 ul final volume in well with 3 uM ATP/5 mM MnCl2 final concentration in well.) Incubate 5 minutes while shaking vigorously. *NOTE: It is critical that ATP/MnCl2 phosphorylates the receptor for 5 minutes only. It is best to add the ATP/MnCl2 with an 12 channel pipettor 1 row at a time leaving 20 seconds between each row so that the reaction may be stopped with EDTA exactly 5 minutes later (this depends on the number of plates being phosphorylated in one batch). Shake between each addition. • 9. After 5 minutes, to stop reaction, add 16.5 ul of 200 mM EDTA pH 8.0 for 20 mM final in well, shaking continuously between each addition. This is done using the same timing method as above. After last row has received EDTA, shake plate an additional minute. • 10. Wash 4x with deionized water, twice with TBST. • 11. Add rabbit polyclonal anti-phosphotyrosine serum. Dilute 1:3000 in TBST. Add 100 ul per well. Incubate 30-45 minutes while shaking. • 12. Wash as described above in step 4. • 13. Add BioSource anti-rabbit peroxidase conjugate antibody. Dilute 1:2000 in TBST. Add 100 ul per well. Incubate 30 minutes while shaking. • 14. Wash as described in step 4. • 15. Add 100 ul of ABTS/H2O2 solution to well. Incubate 5 to 10 minutes while shaking. Remove bubbles • 16. […]

T1 sequence (P00533 25-1210): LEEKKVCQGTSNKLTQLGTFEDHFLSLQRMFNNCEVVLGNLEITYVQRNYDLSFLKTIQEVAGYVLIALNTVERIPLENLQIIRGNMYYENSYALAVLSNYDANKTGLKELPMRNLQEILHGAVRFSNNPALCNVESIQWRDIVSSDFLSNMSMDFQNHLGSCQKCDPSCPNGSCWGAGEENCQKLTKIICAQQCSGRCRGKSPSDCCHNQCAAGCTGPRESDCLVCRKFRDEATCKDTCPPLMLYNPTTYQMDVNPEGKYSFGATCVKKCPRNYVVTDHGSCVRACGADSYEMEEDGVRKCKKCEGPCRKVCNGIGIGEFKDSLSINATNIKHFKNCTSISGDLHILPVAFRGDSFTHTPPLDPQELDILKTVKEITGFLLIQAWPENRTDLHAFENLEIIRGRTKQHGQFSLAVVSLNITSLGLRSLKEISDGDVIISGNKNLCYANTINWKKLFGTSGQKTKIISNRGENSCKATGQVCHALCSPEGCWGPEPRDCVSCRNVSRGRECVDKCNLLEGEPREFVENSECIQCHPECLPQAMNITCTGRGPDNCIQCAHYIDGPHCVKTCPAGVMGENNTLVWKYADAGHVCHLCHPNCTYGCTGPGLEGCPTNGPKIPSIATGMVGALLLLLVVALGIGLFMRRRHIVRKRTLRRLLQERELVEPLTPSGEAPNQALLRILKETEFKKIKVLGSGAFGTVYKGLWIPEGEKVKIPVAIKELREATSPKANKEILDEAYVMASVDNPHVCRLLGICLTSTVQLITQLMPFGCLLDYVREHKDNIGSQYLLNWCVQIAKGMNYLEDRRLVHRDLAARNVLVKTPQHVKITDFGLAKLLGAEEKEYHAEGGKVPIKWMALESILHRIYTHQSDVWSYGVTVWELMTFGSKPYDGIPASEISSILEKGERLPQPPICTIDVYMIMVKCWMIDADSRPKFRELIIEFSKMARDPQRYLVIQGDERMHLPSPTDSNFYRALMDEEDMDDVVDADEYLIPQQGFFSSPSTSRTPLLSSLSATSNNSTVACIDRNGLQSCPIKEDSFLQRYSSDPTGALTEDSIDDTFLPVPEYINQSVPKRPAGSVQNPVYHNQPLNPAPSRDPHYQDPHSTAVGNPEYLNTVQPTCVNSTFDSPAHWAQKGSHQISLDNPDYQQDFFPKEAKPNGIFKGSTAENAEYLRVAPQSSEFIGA
PDGF-R, sequence (P09619 33-1106, species assumed): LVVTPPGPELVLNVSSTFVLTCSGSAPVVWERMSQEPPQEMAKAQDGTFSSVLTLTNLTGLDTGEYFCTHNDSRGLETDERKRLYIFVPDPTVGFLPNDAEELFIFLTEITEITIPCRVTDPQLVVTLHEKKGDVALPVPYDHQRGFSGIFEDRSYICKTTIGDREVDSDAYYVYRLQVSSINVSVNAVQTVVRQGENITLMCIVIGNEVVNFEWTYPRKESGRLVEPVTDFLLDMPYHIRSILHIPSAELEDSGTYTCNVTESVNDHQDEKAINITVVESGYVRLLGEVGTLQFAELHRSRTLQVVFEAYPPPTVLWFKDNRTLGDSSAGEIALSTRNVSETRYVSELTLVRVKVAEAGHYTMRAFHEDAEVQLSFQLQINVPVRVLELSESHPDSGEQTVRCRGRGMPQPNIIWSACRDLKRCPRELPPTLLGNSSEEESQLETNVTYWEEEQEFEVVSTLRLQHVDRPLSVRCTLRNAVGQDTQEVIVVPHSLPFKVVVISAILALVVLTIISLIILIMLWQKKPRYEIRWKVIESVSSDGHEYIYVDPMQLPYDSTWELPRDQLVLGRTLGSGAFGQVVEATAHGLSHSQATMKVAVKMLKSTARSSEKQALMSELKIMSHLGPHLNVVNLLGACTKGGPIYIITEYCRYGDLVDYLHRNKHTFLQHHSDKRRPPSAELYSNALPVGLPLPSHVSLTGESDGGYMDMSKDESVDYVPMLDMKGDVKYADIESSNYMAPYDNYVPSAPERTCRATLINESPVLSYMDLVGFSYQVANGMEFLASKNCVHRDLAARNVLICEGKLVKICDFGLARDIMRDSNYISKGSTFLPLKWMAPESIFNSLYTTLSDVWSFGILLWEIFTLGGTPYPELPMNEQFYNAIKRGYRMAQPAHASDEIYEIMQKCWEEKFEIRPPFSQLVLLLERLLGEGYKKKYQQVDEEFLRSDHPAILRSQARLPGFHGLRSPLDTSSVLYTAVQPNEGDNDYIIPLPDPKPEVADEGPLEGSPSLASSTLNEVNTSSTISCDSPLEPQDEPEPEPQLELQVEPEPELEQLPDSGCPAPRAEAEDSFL

Compound | PDGF Kinase %Inhibition (PDGF-R) | Biochem EGFR %Inhibition (EGFR)
CC(C)c1ccc2occ(C=C3C(=O)Nc4ccc(CCCl)cc43)c(=O)c2c1 [10731/G05] | 8.0% | 18.5%
Cc1ccc2occ(C=C3C(=O)Nc4ccc(CCCl)cc43)c(=O)c2c1 [10731/G06] | -0.6% | 2.3%
O=C1Nc2ccc(CCCl)cc2C1=Cc1coc2ccc([N+](=O)[O-])cc2c1=O [10731/G07] | 40.8% | 0.7%
O=C1Nc2ccc(CCCl)cc2C1=Cc1c[nH]c(=O)[nH]c1=O [10731/G08] | -13.9% | 13.3%
COc1ccc2[nH]cc(C=C3C(=O)Nc4ccc(CCCl)cc43)c2c1 [10731/G09] | -8.7% | 8.9%
CN1C(=O)C(=C2C(=O)Nc3ccc(CCCl)cc32)c2ccccc21 [10731/G10] | 5.6% | 5.5%
O=C1Nc2c(Br)cc(Br)cc2C1=CC(c1cccs1)C(F)(F)F (stereo not drawn) [10732/A02] | 10.8% | 5.1%
COc1c(C(C)C)cc(C=C2C(=O)Nc3c(Br)cc(Br)cc32)cc1C(C)C [10732/A03] | -3.8% | 0.8%
CC(C)c1cc(C=C2C(=O)Nc3c(Br)cc(Br)cc32)cc(C(C)C)c1Oc1ccccc1 [10732/A04] | -9.4% | -10.6%
COc1ccc(C=C2C(=O)Nc3c(Br)cc(Br)cc32)cc1C(C)(C)C [10732/A05] | -12.9% | 4.6%
CC(C)(C)c1cc(C=C2C(=O)Nc3c(Br)cc(Br)cc32)ccc1OCc1ccccc1 [10732/A06] | 12.3% | -1.4%
COc1c(Br)cc(C=C2C(=O)Nc3c(Br)cc(Br)cc32)cc1C(C)(C)C [10732/A07] | 0.7% | -0.3%
CC(C)(C)c1cc(C=C2C(=O)Nc3c(Br)cc(Br)cc32)cc(Br)c1OCc1ccccc1 [10732/A08] | 31.0% | 12.1%
COc1c(Cl)cc(C=C2C(=O)Nc3c(Br)cc(Br)cc32)cc1C(C)(C)C [10732/A09] | 8.8% | 39.7%
CC(C)(C)c1cc(C=C2C(=O)Nc3c(Br)cc(Br)cc32)cc(Cl)c1OCc1ccccc1 [10732/A10] | 7.3% | 6.1%
COc1c(I)cc(C=C2C(=O)Nc3c(Br)cc(Br)cc32)cc1C(C)(C)C [10732/A11] | 40.1% | 1.8%
O=C1Nc2ccc(I)cc2C1=CC(c1cccs1)C(F)(F)F (stereo not drawn) [10732/B02] | 23.5% | -26.0%
COc1c(C(C)C)cc(C=C2C(=O)Nc3ccc(I)cc32)cc1C(C)C [10732/B03] | 17.4% | -15.3%

Compound | PDGF Kinase %Inhibition (PDGF-R) | Biochem EGFR %Inhibition (EGFR)
CC(C)c1cc(C=C2C(=O)Nc3ccc(I)cc32)cc(C(C)C)c1Oc1ccccc1 [10732/B04] | 16.9% | -22.1%
COc1ccc(C=C2C(=O)Nc3ccc(I)cc32)cc1C(C)(C)C [10732/B05] | 21.9% | 17.0%
CC(C)(C)c1cc(C=C2C(=O)Nc3ccc(I)cc32)ccc1OCc1ccccc1 [10732/B06] | -12.4% | 12.8%
COc1c(Br)cc(C=C2C(=O)Nc3ccc(I)cc32)cc1C(C)(C)C [10732/B07] | 21.4% | 15.8%
CC(C)(C)c1cc(C=C2C(=O)Nc3ccc(I)cc32)cc(Br)c1OCc1ccccc1 [10732/B08] | 16.9% | 7.8%
COc1c(Cl)cc(C=C2C(=O)Nc3ccc(I)cc32)cc1C(C)(C)C [10732/B09] | 18.4% | 2.0%
CC(C)(C)c1cc(C=C2C(=O)Nc3ccc(I)cc32)cc(Cl)c1OCc1ccccc1 [10732/B10] | 0.7% | 0.6%
COc1c(I)cc(C=C2C(=O)Nc3ccc(I)cc32)cc1C(C)(C)C [10732/B11] | 70.9% | 9.3%
Cc1c(Br)ccc2c1C(=CC(c1cccs1)C(F)(F)F)C(=O)N2 (stereo not drawn) [10732/C02] | 7.3% | -6.5%
COc1c(C(C)C)cc(C=C2C(=O)Nc3ccc(Br)c(C)c32)cc1C(C)C [10732/C03] | 7.3% | 1.4%
Cc1c(Br)ccc2c1C(=Cc1cc(C(C)C)c(Oc3ccccc3)c(C(C)C)c1)C(=O)N2 [10732/C04] | 3.8% | -14.7%
COc1ccc(C=C2C(=O)Nc3ccc(Br)c(C)c32)cc1C(C)(C)C [10732/C05] | -17.0% | -22.8%
Cc1c(Br)ccc2c1C(=Cc1ccc(OCc3ccccc3)c(C(C)(C)C)c1)C(=O)N2 [10732/C06] | 5.3% | -43.2%
COc1c(Br)cc(C=C2C(=O)Nc3ccc(Br)c(C)c32)cc1C(C)(C)C [10732/C07] | 4.3% | -28.6%
Cc1c(Br)ccc2c1C(=Cc1cc(Br)c(OCc3ccccc3)c(C(C)(C)C)c1)C(=O)N2 [10732/C08] | 17.9% | 1.6%
COc1c(Cl)cc(C=C2C(=O)Nc3ccc(Br)c(C)c32)cc1C(C)(C)C [10732/C09] | 15.4% | -3.9%
Cc1c(Br)ccc2c1C(=Cc1cc(Cl)c(OCc3ccccc3)c(C(C)(C)C)c1)C(=O)N2 [10732/C10] | 5.8% | 1.2%
COc1c(I)cc(C=C2C(=O)Nc3ccc(Br)c(C)c32)cc1C(C)(C)C [10732/C11] | 16.4% | -5.0%
